Measured values published in ChEMBL document CHEMBL1124787, “Conformationally constrained congeners of 6-aryl-5-methyl-4,5-dihydro-3(2H)-pyridazinones active on the cardiovascular system: conformational studies by molecular mechanics calculations and 1H NMR spectroscopy” (1990).
The source made the active and inactive calls. The calls are words filed in the database; no cut-off is given here.

Key:
Mus musculus = assay: Antithrombotic activity after oral administration in mouse was measured as protection vs control percent; type: functional
Rattus norvegicus = assay: The dose (administered orally) that lowered blood pressure by 50 mmHg in conscious, spontaneously hypertensive rats (SHR) (peak effect); IA-Inactive; type: functional, organism-based
Cavia porcellus = species on record: Cavia porcellus; assay: Inotropic activity evaluated in vitro in spontaneously beating guinea pig atria;IA-Inactive; type: functional

Row | SMILES | Activity (Mus musculus) | ED50 (Rattus norvegicus) | pD2 (Cavia porcellus)
1 | Nc1ccc2c(c1)CCC1CC(=O)NN=C21 (stereo not given) | 73 |  | 
2 | Nc1ccc2c(c1)CCCC1CC(=O)NN=C21 (stereo not given) | 45 | inactive | inactive
3 | CC(=O)Nc1ccc2c(c1)CCCC1CC(=O)NN=C21 (stereo not given) | 46 | inactive | inactive
4 | CC(=O)Nc1ccc2c(c1)CC1CC(=O)NN=C21 (stereo not given) | 100 |  | 
5 | CC(=O)Nc1ccc2c(c1)CCC1CC(=O)NN=C21 (stereo not given) | 100 |  | 
6 | Nc1ccc2c(c1)CC1CC(=O)NN=C21 (stereo not given) | 87 |  | 
